Our source for the Critical pressure and Critical temperature values is the NIST ThermoML archive (doi:10.1016/j.fluid.2015.12.031).

± gives the expanded uncertainty stated by the source.

For this data set the following is noted: Liquid; Resistive pulse heating.
Consider `CCOC(=O)CC(=O)OCC` [diethyl 1,3-propanedioate], for which the Critical pressure was determined as 2700 ± 80 kPa and the Critical temperature came to 651 ± 7 K.

For `CCOC(=O)CCCCC(=O)OCC` [diethyl hexanedioate], the Critical pressure came out at 1990 ± 60 kPa and the Critical temperature amounted to 697 ± 7 K.

For the compound `CCOC(=O)CCC(=O)OCC` [diethyl butanedioate], the Critical pressure is reported as 2290 ± 70 kPa and the Critical temperature is 666 ± 7 K.
